What was measured:
Type in all cases: physicochemical
[1] = Ceramide compatibility by differential scanning calorimetry (DSC): melting enthalpy and compatibility ratio; details: for Ratio: measured peak area / calculated theoretical value
[2] = as above; details: for Peak area / Melting enthalpy: DSC; for Compatibility ratio 104+NPO / Compatibility ratio 104+NPS: from total melting enthalpy; for Compatibility ratio 104+NPO / Enthalpy (J/g) NPO / Compatibility ratio 104+NPS / Enthalpy (J/g) NPS: by 104 Ratio; for Enthalpy (J/g) NPO / Enthalpy (J/g) NPS: total melting enthalpy of mixed ceramides; for Enthalpy (J/g) NPO: 104 with NPO; for Melting enthalpy: total melting enthalpy of single unmixed ceramide; for Ratio: measured peak area / calculated theoretical value, PC-104 and NPS; for Enthalpy (J/g) NPS: 104 with NPS
Description: Ceramide compatibility was evaluated through measurement of differential scanning calorimetry (DSC). It is known that a ceramide compatibility study through DSC measurement may be utilized when measurement is not performed by polythermal and isothermal methods, or when slurry density of a solution is high, but has almost never been utilized in a ceramide study. In prediction of solubility of indomethacin (IMC) in polymers such as hydroxypropyl methylcellulose (HPMC) and polyvinylpyrrolidone (PVP), it was also confirmed that solubility prediction of a DSC method is excellent in a combination of IMC and HPMC. Since confirming compatibility between ceramides is a situation of confirming solubility when two solid-phase substances are mixed, a DSC experiment is determined to be very suitable, and thus the present inventors confirmed compatibility by measuring enthalpy of each ceramide, predicting enthalpy of a binary mixture, and actually measuring the same. For DSC measurement, a Thermal Analysis System (differential scanning calorimetry) such as Discovery DSC 250 of TA Instruments was used. In a DSC graph, melting enthalpy was measured by obtaining a peak area, and a unit of the peak area was J/g. A compatibility ratio was calculated by comparing a peak area measurement result of a sample in which ceramides are mixed and a calculated theoretical value (calculated sum area). A compatibility ratio is a ratio indicating compatibility when two components are mixed, and may be used to evaluate whether two components are stable even when mixed and may maintain desired characteristics.. […]
A single sample in which PC-104 and ceramide NP are unmixed (10:0 or 0:10), and samples in which PC-104 and ceramide NP are mixed at ratios such as 1:9 to 9.99:0.01, were each made, a DSC peak area was measured, and an actually measured DSC peak area and a calculated theoretical value according to a ratio of PC-104 and ceramide NP were compared. For compatibility evaluation, a ceramide mixing ratio having a low compatibility ratio was confirmed.

[3] = Solubility of ceramide or ceramide mixture in pure ethanol (94.5% or more)
Source text: Through Example 1, an effect of improvement of compatibility according to ceramide mixing confirmed through DSC measurement was confirmed. Accordingly, an effect of improvement of solubility was additionally confirmed. Specifically, solubility was confirmed as to how well the ceramide or the ceramide mixture dissolves in pure ethanol (94.5% or more).

[4] = PC-104 and NPO at stated weight mixing ratio
[5] = PC-104 and NPS at stated weight mixing ratio

SMILES	Ratio ([1]; PC-104 and NPO)	Peak area [2, 4]	Compatibility ratio 104+NPO [2]	Enthalpy (J/g) NPO [2]	Melting enthalpy [2]	Peak area [2, 5]	Compatibility ratio 104+NPS [2]	Ratio [2]	Enthalpy (J/g) NPS [2]	Peak area ([1]; DSC, PC-104 and NPM at stated weight mixing ratio)	DSC enthalpy (J/g) of corresponding composition ([1]; PC-104 and NPM compositions of the solubility test)	Calculated sum area ([1]; calculated theoretical value from the two unmixed ceramides, PC-104 and NPM)	Compatibility ratio 104+NPM ([1]; from total melting enthalpy, by 104 Ratio)	Ratio ([1]; PC-104 and NPM)	Enthalpy (J/g) NPM ([1]; total melting enthalpy of mixed ceramides, 104 with NPM, by 104 Ratio)	EtOH solubility (mg/uL) [3]
CCCCCCCC/C=C\CCCCCCCC(=O)N[C@@H](CO)[C@H](O)[C@H](O)CCCCCCCCCCCCCC [NPO, CERAMIDE NP(oleic acid)]	1.00	89.0 J/g	1.00	89.0 J/g	89.0 J/g											
CCCCCCCCCCCCCCCCCC(=O)NC(CO)C(O)C(O)CCCCCCCCCCCCCC (centres unmarked) [NPS, CERAMIDE NP(stearic acid)]					114.6 J/g	114.6 J/g	1.00	1.00	114.6 J/g							
CCCCCCCCCCCCCCCC(=O)N(CCO)CC(O)CN(CCO)C(=O)CCCCCCCCCCCCCCC [PC-104, HYDROXYPROPYL BISPALMITAMIDE MEA]	1.00	151.6 J/g	1.00	151.6 J/g	151.6 J/g	151.6 J/g	1.00	1.00	151.6 J/g	151.6 J/g	151.6 J/g	151.6 J/g	1.00	1.00	151.6 J/g	about 0.04636 mg/uL

Reference: patent EP4772164A1, “CERAMIDE MIXTURE FOR IMPROVING COMPATIBILITY” (Amorepacific Corporation, priority 2023, dated 2025)
